Results published in patent US12612410B2 (CHILDREN'S HOSPITAL MEDICAL CENTER, priority 2020, dated 2026).

Experiments:
MOLM14 F691L cells = assay: MOLM14 F691L cell viability assay (Cell Titer Glo); type: cell-based; conditions: Homo sapiens, MOLM-14, 48 h
Method: (§1) Both cell lines have activated FLT3 receptors, each of which carry additional resistance mutations in the kinase domain (D835Y and F691L, respectively).
(§2) MOLM14 D835Y and MOLM14 F691L cells were grown in RPMI-1640 media supplemented with 20% fetal bovine serum (FBS). For viability/cytotoxicity assessments, cells were seeded into 1536-well white polystyrene tissue culture-treated Greiner plates using a Multidrop Combi dispenser (ThermoFisher), in final volume 5 μL of growth media per well, at a density of 1000 cells per well. After cell addition, 23 nL of test compound were transferred into individual wells (22 doses tested for each test compound, with a 1:2 dilution series starting at 10 μM) via a 1536 pin-tool. Bortezomib (final concentration 2.3 μM) was used as a positive control for cell cytotoxicity. Plates were incubated for 48 hours at standard incubator conditions covered by a stainless steel gasketed lid to prevent evaporation. 48 hours post compound addition, 3 μL of Cell Titer Glo (Promega) were added to each well and plates were incubated at room temperature for 15 minutes with the stainless-steel lid in place. Luminescence readings were taken using a Viewlux imager (PerkinElmer) with a 2 second exposure time per plate.

IRAK4 = molecular target: T1, IRAK4 (Homo sapiens, UniProt Q9NWZ3); assay: RBC HotSpot Kinase Assay, IRAK4; type: biochemical; design: purchased Reaction Biology (RBC), HotSpot kinase assay; conditions: isolated kinase, 33P-ATP
T1 sequence (Q9NWZ3 1-460): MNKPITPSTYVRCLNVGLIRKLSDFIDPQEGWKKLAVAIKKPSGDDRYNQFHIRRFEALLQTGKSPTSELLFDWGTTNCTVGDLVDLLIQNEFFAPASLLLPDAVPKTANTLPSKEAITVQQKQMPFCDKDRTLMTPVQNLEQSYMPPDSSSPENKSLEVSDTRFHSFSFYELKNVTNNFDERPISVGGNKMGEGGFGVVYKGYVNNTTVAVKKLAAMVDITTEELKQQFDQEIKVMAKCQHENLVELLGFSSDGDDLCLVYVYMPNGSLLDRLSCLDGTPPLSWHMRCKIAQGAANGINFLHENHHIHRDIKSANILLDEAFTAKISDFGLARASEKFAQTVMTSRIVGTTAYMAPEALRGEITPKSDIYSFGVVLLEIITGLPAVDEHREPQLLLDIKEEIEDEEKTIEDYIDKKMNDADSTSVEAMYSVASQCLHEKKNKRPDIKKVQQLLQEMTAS
How it was run: (§3)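 Kinase domain constructs, possibly truncated, were assayed radiometrically with 33P-ATP and substrate after 20 min compound preincubation, reacting 2 h at room temp.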

FLT3 = molecular target: T2, FLT3 (Homo sapiens, UniProt P36888); assay: RBC HotSpot Kinase Assay, FLT3; type: biochemical; design: purchased Reaction Biology (RBC), HotSpot kinase assay; conditions: isolated kinase, 33P-ATP
T2 sequence (P36888 27-993): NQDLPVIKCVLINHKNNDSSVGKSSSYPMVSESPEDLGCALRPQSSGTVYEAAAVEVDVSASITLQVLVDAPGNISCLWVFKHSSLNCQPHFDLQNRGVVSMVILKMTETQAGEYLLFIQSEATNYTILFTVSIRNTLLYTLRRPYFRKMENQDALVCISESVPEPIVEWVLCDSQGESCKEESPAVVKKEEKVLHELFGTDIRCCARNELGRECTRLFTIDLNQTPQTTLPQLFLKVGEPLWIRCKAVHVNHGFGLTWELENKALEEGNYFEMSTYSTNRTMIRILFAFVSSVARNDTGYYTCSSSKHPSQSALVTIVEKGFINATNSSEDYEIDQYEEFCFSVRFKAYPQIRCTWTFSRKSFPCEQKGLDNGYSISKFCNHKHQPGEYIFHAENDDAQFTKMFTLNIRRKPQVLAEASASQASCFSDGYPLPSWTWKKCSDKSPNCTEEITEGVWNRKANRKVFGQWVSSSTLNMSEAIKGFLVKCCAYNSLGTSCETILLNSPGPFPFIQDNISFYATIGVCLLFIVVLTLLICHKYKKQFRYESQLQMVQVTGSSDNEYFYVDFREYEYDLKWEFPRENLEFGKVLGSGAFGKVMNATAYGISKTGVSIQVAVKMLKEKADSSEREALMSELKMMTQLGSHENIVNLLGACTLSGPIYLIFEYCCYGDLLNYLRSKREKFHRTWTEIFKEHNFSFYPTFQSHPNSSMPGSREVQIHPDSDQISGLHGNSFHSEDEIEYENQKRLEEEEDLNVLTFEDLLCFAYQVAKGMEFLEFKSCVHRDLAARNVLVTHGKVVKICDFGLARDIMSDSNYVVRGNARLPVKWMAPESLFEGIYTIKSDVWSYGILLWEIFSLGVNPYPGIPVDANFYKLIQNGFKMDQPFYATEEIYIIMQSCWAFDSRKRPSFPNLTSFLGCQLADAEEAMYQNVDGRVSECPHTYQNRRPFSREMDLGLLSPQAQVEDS
How it was run: as §3

MOLM14 D835Y cells = assay: MOLM14 D835Y cell viability assay (Cell Titer Glo); type: cell-based; conditions: Homo sapiens, MOLM-14, 48 h
Method: as §1, §2

IRAK1 = molecular target: T3, IRAK1 (Homo sapiens, UniProt P51617); assay: RBC HotSpot Kinase Assay, IRAK1; type: biochemical; conditions: isolated kinase, 33P-ATP
T3 construct: purchased Reaction Biology (RBC), HotSpot kinase assay
T3 sequence (P51617 whole entry): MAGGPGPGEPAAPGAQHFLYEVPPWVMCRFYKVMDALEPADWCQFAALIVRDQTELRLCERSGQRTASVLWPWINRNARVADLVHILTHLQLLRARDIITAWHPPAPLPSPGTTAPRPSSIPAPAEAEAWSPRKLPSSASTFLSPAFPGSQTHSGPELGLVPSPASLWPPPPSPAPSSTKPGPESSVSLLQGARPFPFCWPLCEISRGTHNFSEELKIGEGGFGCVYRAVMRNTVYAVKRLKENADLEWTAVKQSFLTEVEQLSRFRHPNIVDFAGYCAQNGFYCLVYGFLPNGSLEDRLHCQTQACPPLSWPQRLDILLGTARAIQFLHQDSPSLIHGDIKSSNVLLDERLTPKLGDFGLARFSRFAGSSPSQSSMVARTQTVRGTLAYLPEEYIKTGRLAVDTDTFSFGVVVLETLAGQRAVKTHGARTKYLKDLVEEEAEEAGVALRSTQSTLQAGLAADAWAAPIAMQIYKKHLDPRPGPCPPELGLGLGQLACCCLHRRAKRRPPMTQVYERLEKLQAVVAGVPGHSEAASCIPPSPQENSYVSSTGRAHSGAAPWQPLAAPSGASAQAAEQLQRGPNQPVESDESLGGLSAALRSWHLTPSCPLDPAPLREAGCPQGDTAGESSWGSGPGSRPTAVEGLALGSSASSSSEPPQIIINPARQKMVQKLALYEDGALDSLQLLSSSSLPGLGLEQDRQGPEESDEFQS
How it was run: as §3

Structure (SMILES) | IC50 (MOLM14 F691L cells) [nM] | IC50 (IRAK4) [nM] | IC50 (FLT3) [nM] | IC50 (MOLM14 D835Y cells) [nM] | IC50 (IRAK1) [nM]
F[C@H]1CNC[C@@H]1Nc1cccc(-c2cnc3cnccn23)n1 [Compound 68, N-((3S,4S)-4-fluoropyrrolidin-3-yl)-6-(imidazo[1,2-a]pyrazin-3-yl)pyridin-2-amine] | 473 | 4 | < 0.5 | 47 | 727
O=S1(=O)CCCCN1c1cn2c(-c3nc(N[C@@H]4CCCNC4)c(F)cc3F)cnc2cn1 [Compound 101, (R)-2-(3-(3,5-difluoro-6-(piperidin-3-ylamino)pyridin-2-yl)imidazo[1,2-a]pyrazin-6-yl)-1,2-thiazinane 1,1-dioxide] | 1540 | 24 | 0.9 | 217 | 175
O=S1(=O)CCCCN1c1cn2c(-c3nc(N[C@H]4CNC[C@@H]4F)c(F)cc3F)cnc2cn1 [Compound 102, 2-(3-(3,5-difluoro-6-(((3S,4S)-4-fluoropyrrolidin-3-yl)amino)pyridin-2-yl)imidazo[1,2-a]pyrazin-6-yl)-1,2-thiazinane 1,1-dioxide] | 4330 | 6 | 2 | 386 | 281
O=S1(=O)CCCCN1c1cn2c(-c3nc(N[C@H]4CNCC[C@@H]4F)c(F)cc3F)cnc2cn1 [Compound 103, 2-(3-(3,5-difluoro-6-(((3S,4S)-4-fluoropiperidin-3-yl)amino)pyridin-2-yl)imidazo[1,2-a]pyrazin-6-yl)-1,2-thiazinane 1,1-dioxide] | 1370 | 13 | 0.9 | 193 | 265
O=S1(=O)CCCN1c1cn2c(-c3nc(N[C@@H]4CCCNC4)c(F)cc3F)cnc2cn1 [Compound 104, (R)-2-(3-(3,5-difluoro-6-(piperidin-3-ylamino)pyridin-2-yl)imidazo[1,2-a]pyrazin-6-yl)isothiazolidine 1,1-dioxide] | 86 | 1 | < 0.5 | 11 | 9
O=S1(=O)CCCN1c1cn2c(-c3nc(N[C@H]4CNC[C@@H]4F)c(F)cc3F)cnc2cn1 [Compound 105, 2-(3-(3,5-difluoro-6-(((3S,4S)-4-fluoropyrrolidin-3-yl)amino)pyridin-2-yl)imidazo[1,2-a]pyrazin-6-yl)isothiazolidine 1,1-dioxide] | 686 | 1 | < 0.5 | 55 | 22
O=S1(=O)CCCN1c1cn2c(-c3nc(N[C@H]4CNCC[C@@H]4F)c(F)cc3F)cnc2cn1 [Compound 106, 2-(3-(3,5-difluoro-6-(((3S,4S)-4-fluoropiperidin-3-yl)amino)pyridin-2-yl)imidazo[1,2-a]pyrazin-6-yl)isothiazolidine 1,1-dioxide] | 122 | 3 | < 0.5 | 17 | 21
O=C1CCCN1c1cn2c(-c3nc(N[C@H]4CNC[C@@H]4F)c(F)cc3F)cnc2cn1 [Compound 109, 1-(3-(3,5-difluoro-6-(((3S,4S)-4-fluoropyrrolidin-3-yl)amino)pyridin-2-yl)imidazo[1,2-a]pyrazin-6-yl)pyrrolidin-2-one] | 1930 | 4 | 0.7 | 137 | 52

Second part, the compound after the results:

IC50 (MOLM14 F691L cells) [nM] | IC50 (IRAK4) [nM] | IC50 (FLT3) [nM] | IC50 (MOLM14 D835Y cells) [nM] | IC50 (IRAK1) [nM] | Structure (SMILES)
159 | 5 | < 0.5 | 21 | 77 | F[C@H]1CCNC[C@@H]1Nc1cccc(-c2cnc3cnc(C4(C(F)(F)F)CC4)cn23)n1 [Compound 13, N-((3S,4S)-4-fluoropiperidin-3-yl)-6-(6-(1-(trifluoromethyl)cyclopropyl)imidazo[1,2-a]pyrazin-3-yl)pyridin-2-amine]
88 | 5 | < 0.5 | 10 | 288 | FC(F)c1cn2c(-c3cccc(N[C@@H]4CCCNC4)n3)cnc2cn1 [Compound 17, (R)-6-(6-(difluoromethyl)imidazo[1,2-a]pyrazin-3-yl)-N-(piperidin-3-yl)pyridin-2-amine]
19 | < 0.5 | < 0.5 | 2 | 32 | FC(F)c1cn2c(-c3cccc(N[C@H]4CNC[C@@H]4C(F)(F)F)n3)cnc2cn1 [Compound 19, 6-(6-(difluoromethyl)imidazo[1,2-a]pyrazin-3-yl)-N-((3R,4S)-4-(trifluoromethyl)pyrrolidin-3-yl)pyridin-2-amine]
502 | 0.7 | < 0.5 | 94 | 220 | CC(C)(O)c1cn2c(-c3cccc(N[C@H]4CNC[C@@H]4F)n3)cnc2cn1 [Compound 28, 2-(3-(6-(((3S,4S)-4-fluoropyrrolidin-3-yl)amino)pyridin-2-yl)imidazo[1,2-a]pyrazin-6-yl)propan-2-ol]
152 | 2 | < 0.5 | 23 | 101 | FC(F)(F)COc1cn2c(-c3cccc(N[C@H]4CNCC45CC5)n3)cnc2cn1 [Compound 40, (R)-N-(6-(6-(2,2,2-trifluoroethoxy)imidazo[1,2-a]pyrazin-3-yl)pyridin-2-yl)-5-azaspiro[2.4]heptan-7-amine]
38 | 3 | 0.6 | 9 | 60 | c1cc(N[C@@H]2CCCNC2)nc(-c2cnc3cnc(C4CC4)cn23)c1 [Compound 48, (R)-6-(6-cyclopropylimidazo[1,2-a]pyrazin-3-yl)-N-(piperidin-3-yl)pyridin-2-amine]
158 | 4 | < 0.5 | 15 | 504 | FC(F)COc1cn2c(-c3cccc(N[C@@H]4CCCNC4)n3)cnc2cn1 [Compound 75, (R)-6-(6-(2,2-difluoroethoxy)imidazo[1,2-a]pyrazin-3-yl)-N-(piperidin-3-yl)pyridin-2-amine]
193 | 1 | < 0.5 | 21 | 43 | O=S1(=O)CCCN1c1cn2c(-c3cccc(N[C@H]4CNC[C@@H]4F)n3)cnc2cn1 [Compound 95, 2-(3-(6-(((3S,4S)-4-fluoropyrrolidin-3-yl)amino)pyridin-2-yl)imidazo[1,2-a]pyrazin-6-yl)isothiazolidine 1,1-dioxide]
1450 | 98 | 3 | 154 | 4240 | O=C1COCCN1c1cn2c(-c3cccc(N[C@H]4CNC[C@@H]4F)n3)cnc2cn1 [Compound 110, 4-(3-(6-(((3S,4S)-4-fluoropyrrolidin-3-yl)amino)pyridin-2-yl)imidazo[1,2-a]pyrazin-6-yl)morpholin-3-one]
